The values that follow are results of earlier work, collected in US9597306B1, “Fumarate compounds, pharmaceutical compositions thereof, and methods of use” (priority 2015, dated 2017).

Regarding `COC(=O)/C=C/C(=O)OC` [DMF, dimethylfumarate], the aqueous solubility result is recorded as “poor”.
